The record followed here is patent US4451467A, “4(3H)-Quinazolinone derivatives, process for production thereof, and pharmaceutical compositions comprising said compounds” (Ishikawa; Masayuki, priority 1981, dated 1984).

Common to all, as to assay type: in vivo
For series [1], the system named is normotensive dogs anesthetized with pentobarbital sodium. The series can be described thus: Hypotensive effect on anesthetized dogs (intravenous). Conditions: i.v.; for hypotensive effect in anesthetized dogs (in words): same conditions as Table II, dose under 100 μg/kg; for Hypotensive Effect Δ(mmHg): anesthetized dogs, mean value.
Procedure: Groups of three to four normotensive dogs anesthetized with pentobarbital sodium were used in the experiments. The test compounds were dissolved in a minimum amount of ethanol, and the solutions were administered intravenously in the vein cannulated with a polyethylene tube. The mean blood pressures in the carotid artery were recorded using a pressure transducer and a recorder. The hypotensive effect in Table II are a mean value obtained from at least three to four experiments.
Series [2] deals with male spontaneously hypertensive rats (Wister Kyoto origin). The series can be described thus: Hypotensive effect on conscious spontaneously hypertensive rats (oral). Conditions: Rattus norvegicus, tail-cuff method, read-out: pD30 (dose which decreases systolic blood pressure by 30 mmHg). How it is done: (b) Hypotensive effect on conscious spontaneously hypertensive rate
The test compounds were orally administered to groups of four to five of male spontaneously hypertensive rats (Wister Kyoto origin) weighing about 300 g and aged 15 to 20 weeks. The systolic blood pressure was measured by the tail-cuff method using a plethysmograph.

The nature of series [3]: Test for acute toxicity (oral, rats). Conditions: rat, in vivo, rats, 8 days. An excerpt:
(§1) A suspension of a test compound in 0.5% CMC aqueous solution containing Tween 80 was orally administered to rats, and during 8 days the number of dead rats was counted.

The test system of another series is rats. Nature of the series: Test for acute toxicity (oral, rats). Conditions: for number of dead rats [drawing 15]: 8 days.
Excerpt: as §1

As to `CCOC(=O)c1c(C)cc2c(c1C)c(=O)n(-c1ccccc1Cl)c(=O)n2CCN(CC)CC` [3-(2-chlorophenyl)-6-ethoxycarbonyl-5,7-dimethyl-1-(2-(N,N-diethylamino)ethyl]-2,4(1H,3H)-quinazolinedione, reference compound], in series [1], the “hypotensive effect in anesthetized dogs (in words)” value (shortened to “hypotensive effect … (in words)”) is “did not exhibit a hypotensive effect”.
Regarding `CCNC(=O)OCc1nc2cc(C)c(C(=O)OCC)c(C)c2c(=O)n1-c1ccccc1[N+](=O)[O-]` [Compound 28], the “Hypotensive Effect Δ(mmHg)” value in series [1] (dose 1.0 μg/kg) came out at 0 mmHg; in series [1] (dose 3.0 μg/kg) it was 6 mmHg; in series [1] (dose 10 μg/kg), 9 mmHg; in series [1] (dose 30 μg/kg) it was 25 mmHg.
For `CCOC(=O)c1c(C)cc2nc(COC(=O)N(C)C)n(-c3ccccc3Cl)c(=O)c2c1C.Cl` [Compound 3, 3-(2-chlorophenyl)-2-(N,N-dimethylcarbamoyloxymethyl)-6-ethoxy-carbonyl-5,7-dimethyl-4(3H)-quinazolinone hydrochloride], the “Hypotensive Effect Δ(mmHg)” value is 0 mmHg in series [1] (dose 1.0 μg/kg); 0 mmHg in series [1] (dose 3.0 μg/kg); 1 mmHg in series [1] (dose 10 μg/kg); 6 mmHg in series [1] (dose 30 μg/kg); 20 mmHg in series [1] (dose 100 μg/kg).
With `CCOC(=O)c1c(C)cc2nc(COC(=O)NC(C)C)n(-c3ccccc3F)c(=O)c2c1C` [Compound 18], the “Hypotensive Effect Δ(mmHg)” value in series [1] (dose 1.0 μg/kg) is on record as 5 mmHg; in series [1] (dose 3.0 μg/kg) it was 10 mmHg; in series [1] (dose 10 μg/kg), 28 mmHg.
As for `CCOC(=O)c1c(C)cc2nc(COC(=O)NC(C)C)n(-c3ccccc3Cl)c(=O)c2c1C` [Compound 2, 3-(2-chlorophenyl)-6-ethoxycarbonyl-5,7-dimethyl-2-(N-isopropylcarbamoyloxymethyl)-4(3H)-quinazolinone], the results for the “Hypotensive Effect Δ(mmHg)” value in series [1] (dose 1.0 μg/kg) and in series [1] (dose 3.0 μg/kg) were 24 mmHg and 48 mmHg, respectively. Besides, the ED (30 mmHg) in series [2] stood at 0.42 mg/kg.
In the case of `CCNC(=O)OCc1nc2cc(C)c(C(=O)OCC)c(C)c2c(=O)n1-c1ccccc1Cl` [Compound 9], the “Hypotensive Effect Δ(mmHg)” value in series [1] (dose 1.0 μg/kg) came to 22 mmHg; in series [1] (dose 3.0 μg/kg), 42 mmHg. Also, the ED (30 mmHg) in series [2] was found to be 0.35 mg/kg.
For `CCOC(=O)c1c(C)cc2nc(COC(=O)NC(C)C)n(-c3ccccc3Br)c(=O)c2c1C` [Compound 19], the results for the “Hypotensive Effect Δ(mmHg)” value in series [1] (dose 1.0 μg/kg) and in series [1] (dose 3.0 μg/kg) were 20 mmHg and 35 mmHg, respectively.
Taken in the same sequence, the figures for `CCCCNC(=O)OCc1nc2cc(C)c(C(=O)OCC)c(C)c2c(=O)n1-c1ccccc1Cl` [Compound 12] were 10 mmHg and 25 mmHg.
In the case of `COc1ccc(Cc2nccc3cc(OC)c(OC)cc23)cc1OC` [papaverine, reference compound], the “hypotensive effect … (in words)” value in series [1] is recorded as “did not exhibit a hypotensive effect”.
Turning to `CCOC(=O)c1c(C)cc2nc(COC(=O)NC)n(-c3ccccc3Cl)c(=O)c2c1C` [Compound 1, 3-(2-chlorophenyl)-6-ethoxycarbonyl-5,7-dimethyl-2-(N-methylcarbamoyloxymethyl)-4(3H)-quinazolinone], the “Hypotensive Effect Δ(mmHg)” value amounted to 3 mmHg in series [1] (dose 1.0 μg/kg); 6 mmHg in series [1] (dose 3.0 μg/kg); 22 mmHg in series [1] (dose 10 μg/kg); 43 mmHg in series [1] (dose 30 μg/kg); 51 mmHg in series [1] (dose 100 μg/kg). In addition, in series [2], the ED (30 mmHg) turned out to be 2.8 mg/kg. For the same compound, the LD50 at 192 h in series [3] amounted to 2500 mg/kg. Further, the “toxicity (in words)” value in the series on rats (acute, rats) is listed as “very low”. Besides, the “number of dead rats [drawing 15]” value was 2/6 in the series with rats (dose 1200 mg/Kg); 3/6 with rats (dose 1715 mg/Kg); 3/6 in the series with rats (dose 2450 mg/Kg); 3/6 in the series on rats (dose 3500 mg/Kg); 5/6 in the series on rats (dose 5000 mg/Kg).
Consider `CCCNC(=O)OCc1nc2cc(C)c(C(=O)OCC)c(C)c2c(=O)n1-c1ccccc1Cl` [Compound 10], for which the “Hypotensive Effect Δ(mmHg)” value in series [1] (dose 1.0 μg/kg) worked out at 10 mmHg; in series [1] (dose 3.0 μg/kg), 25 mmHg.
Take `CCOC(=O)c1c(C)cc2nc(COC(=O)NC(C)C)n(-c3ccccc3C)c(=O)c2c1C` [Compound 23]: the “Hypotensive Effect Δ(mmHg)” value is given as 8 mmHg in series [1] (dose 1.0 μg/kg) and 25 mmHg in series [1] (dose 3.0 μg/kg).
On to `CCOC(=O)c1c(C)cc2nc(C)n(-c3ccccc3C(F)(F)F)c(=O)c2c1C` [6-ethoxycarbonyl-3-[2-(trifluoromethyl)phenyl]-2,5,7-trimethyl-4(3H)-quinazoline, reference compound], for which, in series [1], the “hypotensive effect … (in words)” value was “did not exhibit a hypotensive effect”.
In the case of `CCOC(=O)c1c(C)cc2nc(C)n(-c3ccccc3Cl)c(=O)c2c1C` [3-(2-chlorophenyl)-6-ethoxycarbonyl-2,5,7-trimethyl-4(3H)-quinazolinone, reference compound], the “hypotensive effect … (in words)” value in series [1] is “did not exhibit a hypotensive effect”.
As for `CCOC(=O)c1c(C)cc2nc(COC(=O)NC(C)(C)C)n(-c3ccccc3Cl)c(=O)c2c1C` [Compound 14], the entries for the “Hypotensive Effect Δ(mmHg)” value in series [1] (dose 1.0 μg/kg), in series [1] (dose 3.0 μg/kg) and in series [1] (dose 10 μg/kg) were 8 mmHg, 10 mmHg and 25 mmHg, respectively.
On to `CCOC(=O)c1c(C)cc2c(c1C)c(=O)n(-c1ccccc1C(F)(F)F)c(=O)n2CCN(CC)CC` [6-ethoxycarbonyl-3-[2-(trifluoromethyl)phenyl]-5,7-dimethyl-1-[2-(N,N-diethylamino)ethyl]-2,4(1H,3H)-quinazolinedione, reference compound], for which, in series [1], the “hypotensive effect … (in words)” value is on record as “did not exhibit a hypotensive effect”.
Consider `CCOC(=O)c1c(C)cc2nc(COC(=O)NC(C)C)n(-c3ccccc3C(F)(F)F)c(=O)c2c1C` [Compound 27], for which the “Hypotensive Effect Δ(mmHg)” value in series [1] (dose 1.0 μg/kg) was determined as 0 mmHg; in series [1] (dose 3.0 μg/kg), 0 mmHg; in series [1] (dose 10 μg/kg) it was 8 mmHg; in series [1] (dose 30 μg/kg) it was 18 mmHg; in series [1] (dose 100 μg/kg), 25 mmHg.

A word on the LD50: it is the dose at which mortality reaches 50%. A higher LD50 goes with lower toxicity.
